# Laboratory results published in ChEMBL document CHEMBL1201862, “PubChem BioAssay data set” (2004).
# Active and inactive are the calls of the source.
# Test system: not listed separately
# Assay: HEp-2 cell cytotoxicity, dose response, cytotoxicity control for RSV inhibitor project, HTS (AID 2410)
# Assay type: functional
# Conditions: human respiratory syncytial virus
row,SMILES,CC50
1,Cc1cc(-n2nnc3ccccc32)nc2ccccc12,19.1 µM (active)
2,Cc1ccc(Nc2nc(Cl)c(C=O)s2)cc1Cl,19.2 µM (active)
3,CCOC(=O)c1c(C)[nH]c(C(=O)/C(C#N)=C/c2ccc(OC)c(OC)c2)c1C,> 50 µM (active)
4,CCN1C=C(Cc2ccccc2C)C2=C(C1)C(c1ccccc1C)C(C#N)=C(N)O2 (centres undefined),13.1 µM (active)
5,COc1ccc(-c2nc3n(c2Br)CCC3)cc1,30.9 µM (active)
6,CCOc1ccc(CNc2ccc(CNc3nc[nH]n3)cc2)cc1,18 µM (active)
7,COc1ccc(NC(=O)CSc2nc3cc[nH]cc-3n2)c(OC)c1,33.1 µM (active)
8,Cc1ccc(NC(=O)CN2C(=O)NC(C)(c3ccc(Cl)cc3)C2=O)c(Br)c1 (centres undefined),30.1 µM (active)
9,O=C(c1ccccc1)N1CCCC(c2ccc(Cl)cc2)=N1,42.4 µM (active)

# Test system: Streptococcus sp. 'group A'
# Assay: growth inhibition of control SK(-) GAS strain, dose response, counter-screen for streptokinase expression inhibitor project, luminescence, kanamycin, BacTiterGlo, confirmation (AID 1900)
# Assay type: functional, organism-based
# Conditions: not given
row,SMILES,EC50
1,CCC(C)Sc1cccc(-c2nc3ccc(C)cn3c2NCc2ccccc2)c1 (centres undefined),3.25 µM (active)
2,Cc1ccc(/C=N/NC(=O)Cc2ccc(Cl)cc2)c(O)c1,1.1 µM (active)

# Test system: not listed separately
# Assay: cells
# Assay type: functional, cell-based
# Conditions: not given
row,SMILES,EC50
1,CC(Oc1ccc2c3c(c(=O)oc2c1)CCCC3)C(=O)NCC(O)c1ccccc1 (centres undefined),> 350 µM (not active)

# Target: T1, Streptokinase A (Streptococcus pyogenes serotype M1, UniProt P10520)
# T1 sequence (P10520 whole entry): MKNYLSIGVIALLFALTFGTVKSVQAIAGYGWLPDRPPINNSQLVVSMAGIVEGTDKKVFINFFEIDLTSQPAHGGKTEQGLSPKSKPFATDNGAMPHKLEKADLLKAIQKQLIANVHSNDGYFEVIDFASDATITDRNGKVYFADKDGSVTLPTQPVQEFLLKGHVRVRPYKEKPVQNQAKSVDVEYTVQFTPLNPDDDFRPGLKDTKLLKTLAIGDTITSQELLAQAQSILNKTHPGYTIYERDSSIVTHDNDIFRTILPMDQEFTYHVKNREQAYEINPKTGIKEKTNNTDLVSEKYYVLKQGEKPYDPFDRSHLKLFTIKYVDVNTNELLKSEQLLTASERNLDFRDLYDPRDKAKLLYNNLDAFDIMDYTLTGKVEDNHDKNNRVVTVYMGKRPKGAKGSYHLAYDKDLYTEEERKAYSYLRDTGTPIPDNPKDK
# Assay: S. pyogenes streptokinase expression inhibitors, potency, dose response, plasminogen activation absorbance, OD405 (AID 1914);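 note: secreted streptokinase activity via plasminogen activation per viability signal from cell pellet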
# Assay type: functional, Streptococcus pyogenes M1 GAS
# Conditions: not given
row,SMILES,EC50
1,O=C1c2[nH]nc(-c3ccccc3O)c2C(c2cccc(Cl)c2)N1Cc1ccco1 (centres undefined),15.8 µM (active)
2,CCC(C)Sc1cccc(-c2nc3ccc(C)cn3c2NCc2ccccc2)c1 (centres undefined),4.26 µM (active)

# Test system: not listed separately
# Assay: inhibitors of intracellular T. cruzi replication, confirmation, NIH3T3 host cells, beta-gal luminescence (AID 2044);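 note: intracellular parasites grown in NIH/3T3 mouse fibroblasts as host cells; luminescent beta-galactosidase reporter signal from transgenic T. cruzi replicating inside host cells; inhibitors lower the luminescence signal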
# Assay type: functional, cell-based
# Conditions: not given
row,SMILES,EC50
1,O=C(Cn1c(-c2ccccc2)c[n+]2ccsc12)c1ccc([N+](=O)[O-])cc1,0.549 µM (active)

# Test system: not listed separately
# Assay: cytotoxicity toward NIH3T3 fibroblasts, dose response, counter-screen, cell-based, ATP luminescence, mouse fibroblasts (AID 2010);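 note: cells exposed to compound for about 90 hours before reading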
# Assay type: functional
# Conditions: not given
row,SMILES,EC50
1,O=C(Cn1c(-c2ccccc2)c[n+]2ccsc12)c1ccc([N+](=O)[O-])cc1,> 60 µM (not active)

# Test system: Streptococcus
# Assay: Group A Streptococcus viability loss, dose response, counter-screen for streptokinase expression inhibitor project, luminescence, BacTiterGlo (AID 1915);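 note: potency for reduction of bacterial viability or growth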
# Assay type: functional, organism-based
# Conditions: not given
row,SMILES,EC50
1,CCC(C)Sc1cccc(-c2nc3ccc(C)cn3c2NCc2ccccc2)c1 (centres undefined),10.3 µM (active)
2,Cc1ccc(/C=N/NC(=O)Cc2ccc(Cl)cc2)c(O)c1,3.08 µM (active)

# Test system: not listed separately
# Assay: Luminescence Cell-Based Dose Retest to Confirm Inhibitors of Cancer Stem Cells. [Related pubchem assays (depositor defined):AID2717, AID2721]
# Assay type: functional
# Conditions: Homo sapiens
row,SMILES,AC50
1,CCC(C)Sc1cccc(-c2nc3ccc(C)cn3c2NCc2ccccc2)c1 (centres undefined),2.75 µM (active)

# Target: Cytochrome P450 2C19 (Homo sapiens, UniProt P33261)
# Sequence (P33261 whole entry): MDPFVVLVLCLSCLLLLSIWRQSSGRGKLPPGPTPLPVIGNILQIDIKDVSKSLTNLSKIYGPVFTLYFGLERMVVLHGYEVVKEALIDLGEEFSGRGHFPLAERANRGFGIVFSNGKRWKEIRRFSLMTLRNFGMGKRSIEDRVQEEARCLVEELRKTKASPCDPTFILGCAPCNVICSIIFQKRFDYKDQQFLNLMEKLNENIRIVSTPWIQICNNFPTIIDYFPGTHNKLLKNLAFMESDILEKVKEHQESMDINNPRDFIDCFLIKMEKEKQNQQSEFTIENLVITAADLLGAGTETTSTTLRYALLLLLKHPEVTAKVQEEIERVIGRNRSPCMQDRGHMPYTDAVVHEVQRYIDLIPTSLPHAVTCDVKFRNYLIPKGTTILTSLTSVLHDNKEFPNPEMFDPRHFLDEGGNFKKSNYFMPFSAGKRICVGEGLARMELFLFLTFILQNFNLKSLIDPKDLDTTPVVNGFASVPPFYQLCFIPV
# Assay: Cytochrome panel assay with activity outcomes. Panel member name: p450-cyp2c19 Compounds with AC50 equal or less than 10 uM are considered active
# Assay type: functional
# Conditions: read-out: AC50
row,SMILES,AC50
1,Cc1ncsc1C(=O)N1N=C2/C(=C/c3ccccc3)CCCC2C1c1ccccc1 (centres undefined),17.8 µM (inconclusive)
2,CC(C)C(NC(=O)C1CCCCC1)C(=O)NC1CCN(Cc2ccccc2)CC1 (centres undefined),3.55 µM (inconclusive)
3,O=C(CSc1ncccn1)Nc1ccc(S(=O)(=O)N2CCCCC2)cc1,25.1 µM (inconclusive)

# Target: T2, Replicative DNA helicase DnaB (Mycobacterium tuberculosis, UniProt P9WMR3)
# T2 sequence (P9WMR3 whole entry): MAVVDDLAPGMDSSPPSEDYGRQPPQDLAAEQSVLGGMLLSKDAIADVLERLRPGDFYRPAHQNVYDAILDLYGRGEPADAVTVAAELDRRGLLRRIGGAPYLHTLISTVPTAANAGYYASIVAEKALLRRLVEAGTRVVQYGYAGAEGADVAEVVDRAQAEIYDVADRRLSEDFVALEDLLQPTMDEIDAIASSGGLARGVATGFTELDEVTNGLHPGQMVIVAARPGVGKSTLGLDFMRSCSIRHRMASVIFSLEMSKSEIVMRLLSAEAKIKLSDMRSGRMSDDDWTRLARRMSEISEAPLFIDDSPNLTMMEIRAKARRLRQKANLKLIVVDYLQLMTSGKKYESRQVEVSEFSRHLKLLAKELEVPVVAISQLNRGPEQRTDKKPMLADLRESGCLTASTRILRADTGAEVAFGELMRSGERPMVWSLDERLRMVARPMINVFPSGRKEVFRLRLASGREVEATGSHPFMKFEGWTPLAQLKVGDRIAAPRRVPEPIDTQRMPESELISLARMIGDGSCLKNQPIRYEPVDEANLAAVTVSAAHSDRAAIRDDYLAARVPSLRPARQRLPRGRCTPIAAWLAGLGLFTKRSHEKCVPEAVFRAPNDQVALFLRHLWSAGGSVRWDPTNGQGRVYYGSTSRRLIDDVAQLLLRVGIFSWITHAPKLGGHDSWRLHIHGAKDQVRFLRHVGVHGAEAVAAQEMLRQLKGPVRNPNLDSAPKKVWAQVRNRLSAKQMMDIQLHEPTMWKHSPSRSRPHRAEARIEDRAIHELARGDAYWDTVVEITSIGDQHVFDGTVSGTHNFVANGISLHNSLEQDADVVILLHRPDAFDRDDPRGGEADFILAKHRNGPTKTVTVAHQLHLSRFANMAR
# Assay: DnaB intein splicing inhibitors, dose response, biochemical, cell-free fluorescence (AID 449749)
# Assay type: functional
# Conditions: not given
row,SMILES,AC50
1,O=C1c2[nH]nc(-c3ccccc3O)c2C(c2cccc(Cl)c2)N1Cc1ccco1 (centres undefined),66.5 µM (active)

# Target: T3, Protein RecA (Mycobacterium tuberculosis, UniProt P9WHJ3)
# T3 sequence (P9WHJ3 whole entry): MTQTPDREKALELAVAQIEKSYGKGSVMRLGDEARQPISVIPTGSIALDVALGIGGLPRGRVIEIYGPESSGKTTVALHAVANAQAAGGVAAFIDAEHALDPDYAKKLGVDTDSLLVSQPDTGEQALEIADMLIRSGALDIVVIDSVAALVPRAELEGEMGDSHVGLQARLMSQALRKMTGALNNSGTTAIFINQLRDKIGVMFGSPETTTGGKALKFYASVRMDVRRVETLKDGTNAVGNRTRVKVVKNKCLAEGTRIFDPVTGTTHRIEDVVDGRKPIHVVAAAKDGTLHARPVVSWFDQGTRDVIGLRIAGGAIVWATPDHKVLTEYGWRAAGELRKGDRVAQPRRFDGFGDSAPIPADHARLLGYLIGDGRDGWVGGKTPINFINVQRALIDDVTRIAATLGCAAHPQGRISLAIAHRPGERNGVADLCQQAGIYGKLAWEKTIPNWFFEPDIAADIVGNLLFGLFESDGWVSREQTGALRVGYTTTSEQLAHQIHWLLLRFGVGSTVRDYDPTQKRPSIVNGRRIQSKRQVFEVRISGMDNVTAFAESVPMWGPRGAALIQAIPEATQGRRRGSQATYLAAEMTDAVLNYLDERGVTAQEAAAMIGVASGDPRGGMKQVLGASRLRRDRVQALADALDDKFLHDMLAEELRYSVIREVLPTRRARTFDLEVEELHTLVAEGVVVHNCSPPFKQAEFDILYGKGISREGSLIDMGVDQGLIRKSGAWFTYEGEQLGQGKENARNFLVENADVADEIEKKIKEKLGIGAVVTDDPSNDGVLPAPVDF
# Assay: Fluorescence Cell-Free Homogeneous Dose Retest to Identify Inhibitors of RecA-Intein Splicing Activity. [Related pubchem assays (depositor defined):AID2097, AID2223, AID489010, AID492950]
# Assay type: functional
# Conditions: not given
row,SMILES,EC50
1,O=C1c2[nH]nc(-c3ccccc3O)c2C(c2cccc(Cl)c2)N1Cc1ccco1 (centres undefined),> 380 µM (inconclusive)

# Test system: INS1
# Assay: beta cell apoptosis inhibitors, cytokine rescue, dose response, luminescence, retest (AID 449756);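 note: cell death triggered by IL-1 beta plus TNF-alpha plus IFN-gamma mixture; protective hits raise ATP signal compared with cytokine alone wells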
# Assay type: functional, cell-based
# Conditions: Rattus norvegicus
row,SMILES,AC50
1,O=C(Cn1c(-c2ccccc2)c[n+]2ccsc12)c1ccc([N+](=O)[O-])cc1,11.6 µM (active)
2,CCC(C)Sc1cccc(-c2nc3ccc(C)cn3c2NCc2ccccc2)c1 (centres undefined),7.39 µM (active)
3,Cc1ccc(/C=N/NC(=O)Cc2ccc(Cl)cc2)c(O)c1,3.76 µM (active)

# Target: T4, Cytochrome P450 1A2 (Homo sapiens, UniProt P05177);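 note: PubChem cytochrome P450 panel assay, CYP1A2 panel member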
# T4 sequence (P05177 whole entry): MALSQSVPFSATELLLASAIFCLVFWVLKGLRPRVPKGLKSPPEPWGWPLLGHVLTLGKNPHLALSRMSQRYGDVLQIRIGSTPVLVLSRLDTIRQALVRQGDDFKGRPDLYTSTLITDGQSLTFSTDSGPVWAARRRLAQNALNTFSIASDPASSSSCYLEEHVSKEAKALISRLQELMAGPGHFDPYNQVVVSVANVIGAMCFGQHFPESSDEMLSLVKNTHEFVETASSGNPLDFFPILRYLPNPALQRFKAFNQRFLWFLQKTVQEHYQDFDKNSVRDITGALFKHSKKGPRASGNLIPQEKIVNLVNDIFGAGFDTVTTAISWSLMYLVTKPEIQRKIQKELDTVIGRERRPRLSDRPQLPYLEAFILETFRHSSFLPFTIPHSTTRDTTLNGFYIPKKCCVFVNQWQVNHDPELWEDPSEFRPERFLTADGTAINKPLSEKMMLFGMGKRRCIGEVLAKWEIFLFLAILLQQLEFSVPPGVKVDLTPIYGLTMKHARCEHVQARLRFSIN
# Assay: not given
# Conditions: not given
row,SMILES,AC50
1,Cc1ncsc1C(=O)N1N=C2/C(=C/c3ccccc3)CCCC2C1c1ccccc1 (centres undefined),17.8 µM (inconclusive)

# Target: Cytochrome P450 3A4 (Homo sapiens, UniProt P08684);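 note: CYP3A4 tested as one member of a cytochrome P450 panel screen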
# Sequence (P08684 whole entry): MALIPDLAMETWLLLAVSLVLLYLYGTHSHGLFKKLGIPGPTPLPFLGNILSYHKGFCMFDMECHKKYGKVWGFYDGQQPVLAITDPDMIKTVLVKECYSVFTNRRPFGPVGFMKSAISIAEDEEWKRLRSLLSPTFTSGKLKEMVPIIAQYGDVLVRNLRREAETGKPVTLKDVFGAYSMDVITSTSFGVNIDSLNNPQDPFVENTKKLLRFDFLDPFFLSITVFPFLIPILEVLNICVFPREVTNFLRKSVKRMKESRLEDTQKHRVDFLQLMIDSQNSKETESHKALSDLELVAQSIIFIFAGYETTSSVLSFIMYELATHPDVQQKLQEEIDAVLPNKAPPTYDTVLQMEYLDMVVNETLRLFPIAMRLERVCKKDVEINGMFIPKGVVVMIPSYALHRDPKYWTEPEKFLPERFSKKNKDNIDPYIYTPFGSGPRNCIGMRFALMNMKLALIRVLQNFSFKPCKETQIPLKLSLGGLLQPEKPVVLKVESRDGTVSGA
# Assay: not given
# Conditions: not given
row,SMILES,AC50
1,O=C(CSc1ncccn1)Nc1ccc(S(=O)(=O)N2CCCCC2)cc1,25.1 µM (inconclusive)
